# Measurements: patent US20060171944A1, “N-formyl peptide receptor mediation of platelet chemotaxis toward injured cells and activation of immune response” (priority 2002, published 2006)
# Columns and labels:
# [1] = molecular target: T1, platelet FPR (Homo sapiens, UniProt P21462); test: Inhibition of platelet chemotaxis to fMLF in transwell migration assay; type: cell-based; conditions: 1 U and 10 U; non-activated and thrombin-activated platelets; P<0.001
# T1 construct: endogenous in cells
# T1 sequence (P21462 1-350): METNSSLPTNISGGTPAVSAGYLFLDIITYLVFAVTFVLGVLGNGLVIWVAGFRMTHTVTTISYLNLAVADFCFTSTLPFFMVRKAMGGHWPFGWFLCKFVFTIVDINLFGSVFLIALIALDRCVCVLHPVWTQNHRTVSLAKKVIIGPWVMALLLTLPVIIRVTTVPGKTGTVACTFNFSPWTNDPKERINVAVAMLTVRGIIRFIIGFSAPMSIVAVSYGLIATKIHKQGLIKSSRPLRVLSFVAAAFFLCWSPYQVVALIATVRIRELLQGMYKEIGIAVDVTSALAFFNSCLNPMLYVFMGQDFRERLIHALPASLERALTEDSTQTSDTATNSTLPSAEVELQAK
# Method: In order to further confirm the specificity of the chemotactic response to N-formyl peptide binding of the FPR, platelet FPR was inhibited by several methods to establish its functional requirement for platelet chemotaxis. Platelets were pretreated with an FPR-specific antibody (α-FPR) capable of blocking the binding of N-formyl peptides to the FPR receptor, prior to the transwell migration assay. […] Additionally, platelets were treated with pertussis toxin, a specific inhibitor of the a-subunit of members of the Gi/o class of G-proteins required for FPR activation.
# Platelet migration was assessed using a 96-well ChemoTx® microplate (Neuro Probe, Gaithersburg Md.). For all chemotaxis experiments, different concentrations of stimulants were placed in the bottom wells of the microplate and the filter was positioned (2 μm pore size). The cell suspension was seeded onto the top of the filter (30 μl) and the microplates were incubated for 2 hrs at 37° C. For all chemokinesis experiments, different concentrations of stimulants were placed in the bottom wells of the microplate and the filter was positioned. […] The filter was then carefully removed and the migrated cells were counted by light microscopy. Results are expressed as the mean value (±SD) of total migrated cells, in triplicate samples, and are taken from five experiments independent.
# [2] = system: human platelets; test: Platelet chemotaxis toward ischemic/reperfused human aortic endothelial cells; type: cell-based; conditions: thrombin-activated platelets
# Method: Primary human aortic endothelial cells were plated in 0.2% gelatin (Sigma) coated 96-well ChemoTx microplates and allowed to recover for 48 hours. Before the plate was placed in the modular incubator chamber (Billups-Rothenberg Inc.; Del Mar, Calif.) the media was replaced with serum-free media containing 10 mM Hepes. The plate was placed on ice and put into the air tight modular incubator chamber and flushed with a gas mixture of 5% CO2 and 95% N2 for 90 min to induce ischemia. The cell culture was then returned to a normoxic environment of atmospheric air/5% CO2 to simulate reperfusion, and allowed to recover for 4 hours in a cell culture incubator. Chemotaxis experiments were then performed.
# In particular, studies were performed to determine whether endogenous danger signals released by tissues undergoing ischemia/reperfusion cell injury induced platelet chemotaxis. Primary human aortic cells, plated in a 96-well ChemoTx plate NeuroProbeInc. Gaithersburg, Md. were placed on ice and put into an air tight modular incubator chamber that was flushed with a gas mixture of 5% CO2 and 95% N2 for 90 min to induce ischemia. The cell culture was then returned to a normoxic environment of atmospheric air/5% CO2 and allowed to recover for 4 hours in a cell culture incubator at 37° C.
substance,measurement,setting,value
pertussis toxin,effect of platelet treatment with pertussis toxin on migration to fMLF,[1],significantly decreased migration
same,effect of platelet treatment on chemotaxis toward ischemic aortic endothelial cells,[2],decreased chemotaxis
